From ChEMBL document CHEMBL3769386, “Targeting microsomal prostaglandin E2synthase-1 (mPGES-1): the development of inhibitors as an alternative to non-steroidal anti-inflammatory drugs (NSAIDs)” (Medchemcomm, 2015)
One block for each compound: values may come before it.

Assays:
[1] = molecular target: T1, Prostaglandin E synthase (Homo sapiens, UniProt O14684); test: Inhibition of microsomal PGES1 (unknown origin)
T1 sequence (O14684 whole entry): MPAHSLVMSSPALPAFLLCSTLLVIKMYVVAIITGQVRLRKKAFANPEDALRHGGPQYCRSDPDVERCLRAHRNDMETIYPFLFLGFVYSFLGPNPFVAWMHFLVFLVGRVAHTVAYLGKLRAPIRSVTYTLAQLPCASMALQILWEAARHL

[2] = molecular target: T2, Prostaglandin E synthase (Mus musculus) (UniProt Q9JM51); test: Inhibition of microsomal PGES1 in mouse J774 cells assessed as reduction of LPS-induced PGE2 production inhibition at 100 uM by radioimmuno assay in presence of radio labelled PGE2; format: cell-based
T2 sequence (whole entry): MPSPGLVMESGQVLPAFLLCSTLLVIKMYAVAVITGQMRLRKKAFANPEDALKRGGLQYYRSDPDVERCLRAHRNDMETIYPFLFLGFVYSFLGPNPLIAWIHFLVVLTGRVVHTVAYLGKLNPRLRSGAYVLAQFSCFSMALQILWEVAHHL

[3] = molecular target: Prostaglandin G/H synthase 1 (Homo sapiens, UniProt P23219); test: Inhibition of COX1 (unknown origin)
Prostaglandin G/H synthase 1, sequence (P23219 whole entry): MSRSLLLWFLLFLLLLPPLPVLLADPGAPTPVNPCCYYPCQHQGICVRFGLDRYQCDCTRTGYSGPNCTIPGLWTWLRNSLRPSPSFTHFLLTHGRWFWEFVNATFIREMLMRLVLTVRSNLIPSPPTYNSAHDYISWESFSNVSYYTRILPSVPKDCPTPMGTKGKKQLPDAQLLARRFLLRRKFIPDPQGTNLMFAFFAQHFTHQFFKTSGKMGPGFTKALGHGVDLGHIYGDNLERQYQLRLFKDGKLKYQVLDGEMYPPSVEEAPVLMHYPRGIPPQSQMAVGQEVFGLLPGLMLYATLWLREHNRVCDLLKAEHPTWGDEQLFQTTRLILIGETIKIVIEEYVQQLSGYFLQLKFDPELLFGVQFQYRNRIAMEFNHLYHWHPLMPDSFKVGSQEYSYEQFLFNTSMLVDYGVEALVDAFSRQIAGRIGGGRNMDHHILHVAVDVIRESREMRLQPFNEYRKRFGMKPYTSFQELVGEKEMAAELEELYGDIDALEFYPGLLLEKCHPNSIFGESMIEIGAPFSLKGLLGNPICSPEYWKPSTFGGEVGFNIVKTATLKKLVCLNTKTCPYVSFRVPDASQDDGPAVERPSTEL

[4] = molecular target: T1, Prostaglandin E synthase; test: Inhibition of microsomal PGES1 in ILbeta-stimulated human A549 cells using PGH2 as substrate preincubated for 15 mins followed by substrate addition measured after 1 min by RP-HPLC analysis; format: cell-based
[5] = molecular target: T1, Prostaglandin E synthase; test: Inhibition of microsomal PGES1 in ILbeta/TNFalpha-stimulated human A549 cells using PGH2 as substrate preincubated for 15 mins followed by substrate addition measured after 1 min by LC-MS/MS analysis; format: cell-based
[6] = molecular target: T3, Prostaglandin G/H synthase 2 (Homo sapiens, UniProt P35354); test: Inhibition of COX2 in IL1beta-induced human A549 cells using arachidonic acid as substrate assessed as 6-keto PGF1a formation preincubated for 10 mins followed by substrate addition measured after 30 mins by enzyme immunoassay; format: cell-based
T3 sequence (P35354 whole entry): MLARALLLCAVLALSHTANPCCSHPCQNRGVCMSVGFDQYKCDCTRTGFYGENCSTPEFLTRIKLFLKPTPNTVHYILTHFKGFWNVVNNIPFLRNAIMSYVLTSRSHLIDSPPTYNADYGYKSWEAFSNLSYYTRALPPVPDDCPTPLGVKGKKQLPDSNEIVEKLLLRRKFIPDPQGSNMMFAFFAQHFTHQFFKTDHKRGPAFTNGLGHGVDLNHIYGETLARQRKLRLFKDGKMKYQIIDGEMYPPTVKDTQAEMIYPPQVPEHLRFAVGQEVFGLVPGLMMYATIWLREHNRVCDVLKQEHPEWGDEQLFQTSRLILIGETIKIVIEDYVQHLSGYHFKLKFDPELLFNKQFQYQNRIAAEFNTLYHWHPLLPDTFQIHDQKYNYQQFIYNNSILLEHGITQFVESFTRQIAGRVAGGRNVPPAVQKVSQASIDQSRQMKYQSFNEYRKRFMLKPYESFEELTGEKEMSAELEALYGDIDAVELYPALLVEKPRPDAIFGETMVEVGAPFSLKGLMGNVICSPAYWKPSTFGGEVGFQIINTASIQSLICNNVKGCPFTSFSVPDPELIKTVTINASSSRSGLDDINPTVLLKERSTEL

[7] = molecular target: T1, Prostaglandin E synthase; test: Inhibition of human microsomal PGES1 using PGH2 as substrate incubated for 90 secs by MDA-TBA assay
[8] = Inhibition of recombinant rat microsomal PGES1 using PGH2 as substrate incubated for 90 secs by MDA-TBA assay
[9] = Inhibition of recombinant rat microsomal PGES1 using PGH2 as substrate after 75 secs by MDA-TBA assay
[10] = molecular target: T1, Prostaglandin E synthase; test: Inhibition of human microsomal PGES1 using PGH2 as substrate incubated after 75 secs by MDA-TBA assay
[11] = molecular target: T4, Polyunsaturated fatty acid 5-lipoxygenase (Homo sapiens, UniProt P09917); test: Inhibition of 5-lipooxygenase (unknown origin)
T4 sequence (P09917 whole entry): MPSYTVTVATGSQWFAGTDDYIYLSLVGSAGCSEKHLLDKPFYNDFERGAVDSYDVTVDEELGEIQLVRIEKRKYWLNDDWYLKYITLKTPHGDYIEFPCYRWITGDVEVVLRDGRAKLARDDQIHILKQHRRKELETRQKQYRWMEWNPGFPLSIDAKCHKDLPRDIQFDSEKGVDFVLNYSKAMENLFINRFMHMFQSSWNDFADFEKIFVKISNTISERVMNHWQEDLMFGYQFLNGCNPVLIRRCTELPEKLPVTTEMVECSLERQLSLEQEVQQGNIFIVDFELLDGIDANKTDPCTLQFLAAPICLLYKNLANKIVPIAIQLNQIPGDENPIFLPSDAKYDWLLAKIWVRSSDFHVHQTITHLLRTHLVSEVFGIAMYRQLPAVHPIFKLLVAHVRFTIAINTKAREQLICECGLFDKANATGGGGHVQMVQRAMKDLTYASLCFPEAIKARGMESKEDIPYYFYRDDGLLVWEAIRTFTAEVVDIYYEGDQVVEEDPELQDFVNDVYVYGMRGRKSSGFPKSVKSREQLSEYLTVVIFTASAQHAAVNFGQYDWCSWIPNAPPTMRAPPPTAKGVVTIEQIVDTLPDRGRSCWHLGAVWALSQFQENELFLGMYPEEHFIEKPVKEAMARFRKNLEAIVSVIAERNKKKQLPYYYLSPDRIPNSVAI

[12] = molecular target: T1, Prostaglandin E synthase; test: Inhibition of recombinant human microsomal PGES1 using PGH2 as substrate preincubated for 15 mins followed by substrate addition measured after 5 mins by enzyme immunoassay

SMILES: O=C(Nc1cccc2ccccc12)c1cccc(NC(=O)c2ccccc2Cl)c1
IC50 ([1]; read-out: IC50): 200 nM

SMILES: CC(=O)c1ccccc1-c1cc2c(C)c(CC(C)(C)C(=O)O)n(Cc3ccc(Cl)cc3)c2cc1F
IC50 ([1]; read-out: pIC50 (converted)): 3.98 nM

SMILES: Cc1ccc(C)c(-c2cc(C(F)(F)F)nn2-c2ccc(S(N)(=O)=O)cc2)c1 [DIMETHYL CELECOXIB]
IC50 ([1]; read-out: IC50): 600 nM

SMILES: CC(C)c1cc2c(c(O)c1O)[C@@]13CCCC(C)(C)[C@@H]1C[C@@H]2OC3=O [CARNOSOL]
IC50 [4]: 5000 nM

SMILES: COc1cc(C(=O)NS(=O)(=O)c2ccccc2C)ccc1Cc1cn(C)c2ccc(NC(=O)OC3CCCC3)cc12 [ZAFIRLUKAST]
IC50 [5]: 18100 nM

SMILES: Cc1c(CC(C)(C)C(=O)O)n(Cc2ccc(Cl)cc2)c2cc(F)c(-c3ccccc3Cl)cc12
IC50 ([1]; read-out: pIC50 (converted)): 5.01 nM

SMILES: COc1ccccc1-c1cc2c(C)c(CC(C)(C)C(=O)O)n(Cc3ccc(Cl)cc3)c2cc1F
IC50 ([1]; read-out: pIC50 (converted)): 6.92 nM

SMILES: CCc1oc(=O)c(Cc2c(O)c(CC=C(C)C)c(O)c(C(C)=O)c2O)c(O)c1C [ARZANOL]
IC50 [6]: ≥ 30000 nM

SMILES: Cc1cc2nc(N3CCC(C(=O)NC4CCCC4)CC3)n(C(C)C)c2cc1C
IC50 [7]: 90 nM
IC50 [8]: 900 nM

SMILES: CC1=NN(C(N)=S)C(=O)/C1=N/Nc1cccc(Br)c1
IC50 [9]: 620 nM
IC50 [10]: 1800 nM

SMILES: CC(C)c1cc2c(c(O)c1O)[C@@]1(C(=O)O)CCCC(C)(C)[C@@H]1CC2 [CARNOSIC ACID]
IC50 [4]: 5000 nM

SMILES: O=C(Nc1ccc2c(c1)c1ccccc1n2CCO)c1ccccc1C(F)(F)F
IC50 [12]: 900 nM

Further lines, results first:

inhibition [2]: 94.3%
SMILES: COc1cc(O)ccc1C1Oc2cc(O)cc(O)c2C(=O)C1O (stereo unspecified)

IC50 [3]: > 30000 nM
IC50 [4]: 1150 nM
SMILES: CCCCCC(=O)Cc1cc(O)cc(O)c1C(=O)Oc1cc(O)c(C(=O)O)c(CCCCC)c1

IC50 [3]: > 30000 nM
IC50 [4]: 430 nM
SMILES: CCCCCC(=O)Cc1cc(O)cc2c1C(=O)Oc1cc(O)c(C(=O)O)c(CCCCC)c1O2 [PHYSODIC ACID]

IC50 [4]: 200 nM
SMILES: COc1cc(/C=C/C(=O)CC(=O)/C=C/c2ccc(O)c(OC)c2)ccc1O [CURCUMIN]

IC50 [3]: > 30000 nM
IC50 [4]: 400 nM
SMILES: CCCCCc1cc(OC(=O)c2c(O)cc(O)cc2CCCCC)cc(O)c1C(=O)O

IC50 [4]: 800 nM
SMILES: CCc1oc(=O)c(C(c2ccccc2)c2c(O)c(CC=C(C)C)c(O)c(C(C)=O)c2O)c(O)c1C (stereo unspecified)

IC50 [4]: 1000 nM
SMILES: CC(=O)c1c(O)c(CC=C(C)C)c(O)c(C(c2ccccc2)c2c(O)cc(C)oc2=O)c1O (stereo unspecified)

IC50 [11]: 2000 nM
SMILES: CCCCCCC(Sc1nc(Cl)cc(Nc2cccc(C)c2C)n1)C(=O)O (stereo unspecified)

inhibition [2]: 93.1%
SMILES: O=C1c2c(O)cc(O)cc2OC(c2ccc(O)cc2)C1O (stereo unspecified)
